Test results published in US8906953B2, “Pyrrolidine substitute flavones for the treatment of inflammatory disorders” (Piramal Enterprises Limited, priority 2010, dated 2014).
Read-outs that look alike come from different tables or passages of the source.

Tested on: TNF-α
Experiment: LPS-induced TNF-α release from hPBMCs (ELISA)
Assay type: cell-based
Settings: Homo sapiens
Method: Cytokine production by lipopolysaccharides (LPS) in hPBMCs (human peripheral blood mononuclear cells) was measured as in reference, Physiol. Res. 2003, 52, 593-598, the disclosure of which is incorporated by reference for the teaching of the assay. Blood was collected from healthy donors into Potassium EDTA vacutainer tubes (BID vacutainer). The PBMC were isolated using gradient centrifugation in Histopaque-1077 solution (Sigma). Isolated PBMC were suspended in RPMI 1640 (Rosewell Park Memorial Institute) culture medium (Sigma-Aldrich Fine Chemicals, USA) containing 10% fetal bovine serum (FBS) (JRH, USA), 100 U/mL penicillin (Sigma Chemical Co. St Louis, Mo., USA) and 100 μg/mL streptomycin (Sigma Chemical Co. St Louis, Mo.). The cell concentration was adjusted to 1×10^6 cells/mL. The viability as determined by trypan blue dye exclusion was uniform Ly≧98%. The cell suspension (100 μL) was added to the wells of a 96-well culture plate. Following cell plating, 79 μL of the culture medium and 1 μL of various concentrations of test compounds (compounds of formula 1) (final concentration 0.001, 0.003, 0.005, 0.01, 0.025, 0.03, 0.05, 0.1, 0.25, 0.3 and 1 μM) dissolved in DMSO (dimethyl sulfoxide, Sigma, Mo., USA) were added to the cells. The final concentration of DMSO was adjusted to 0.5%. The vehicle (0.5% DMSO) was used as control. […] The plates were incubated for 30 minutes at 37° C. in an atmosphere of 5% CO2. Finally, 20 μL (10 μg/mL) per well of LPS, (Escherchia coli 0127:B8, Sigma Chemical Co., St. Louis, Mo.) was added to the wells of the incubated plates, for a final concentration of 1 μg/mL. The plates were incubated at 37° C. for 5 hours in an atmosphere of 5% CO2. […] Supernatants were harvested and assayed for TNF-α, IL-1β, IL-6 and IL-8 by ELISA as described by the manufacturer. (OptiEIA ELISA sets, BD Biosciences, Pharmingen). The 50% inhibitory concentration (IC50) values were calculated by a nonlinear regression method using GraphPad software (Prism 3.03).

**Q.** Which results are given for CN1CC[C@@H](c2c(O)cc(O)c3c(=O)cc(-c4ccc(C(F)(F)F)cc4Cl)oc23)[C@@H]1CO.Cl [Compound of example 3, (+)-trans-2-(2-Chloro-4-trifluoromethyl-phenyl)-5,7-dihydroxy-8-(2-hydroxymethyl-1-methyl-pyrrolidin-3-yl)-chromen-4-one hydrochloride]?
**A.** IC50 (LPS-induced release from hPBMCs (Table 1A), read-out: IC50 TNF-α): 1 µM; IC50 (LPS-stimulated hPBMCs, 5 hours, read-out: Activity (TNF-α) IC50): 1 µM
